{
  "source": "patent US20140242590A1",
  "about": "“FLT3 MUTATIONS ASSOCIATED WITH DRUG RESISTANCE IN AML PATIENTS HAVING ACTIVATING MUTATIONS IN FLT3” (THE REGENTS OF THE UNIVERSITY OF CALIFORNIA, priority 2011, published 2014)",
  "key": {"[1]": {"system": "Ba/F3 cells expressing FLT3-ITD mutant isoforms", "test": "Cell-viability assay of Ba/F3 populations stably expressing FLT3-ITD mutant isoforms", "type": "cell-based", "details": "48 hours", "protocol": "Stable Ba/F3 lines were generated by using retroviral spinfection with the appropriate mutated plasmid as outlined above, with the exception of the exclusion of polybrene. At 48 h post-infection, puromycin was added to infected cells at a concentration of 4 μg/mL. Cells were selected in the presence of puromycin for 7-10 days and subsequently IL-3 was washed twice from the cells with media and cells were selected in RPMI medium 1640+10% FCS in the absence of IL-3. Exponentially growing BaiF3 cells (5×10^4) were plated in each well of a 24-well dish with 1 ml of RPMI 1640+10% FCS containing the appropriate concentration of drug as indicated in triplicate. Cells were allowed to expand for 2 days and were counted by using a Vi-cell XR automated cell viability analyzer (Beckman Coulter). The mean number of viable cells at varying concentrations of drug was normalized to the median number of viable cells in the no-drug sample for each mutant. Error bars represent the standard deviation. Numerical IC50 values were generated using non-linear best-fit regression analysis using Prism 5 software (GraphPad)."}, "[2]": {"system": "Ba/F3 cells expressing FLT3-ITD mutant isoforms", "details": "literature report (ref 18); cited from earlier work"}, "FLT3-ITD mutant isoforms": {"system": "FLT3-ITD mutant isoforms", "test": "Immunoblotting with anti-phospho-FLT3 / anti-FLT3 on Ba/F3 lysates (cell-based biochemical assay)", "details": "five AC220-resistant FLT3-ITD substitutions; 90 minutes exposure", "description": "Exponentially growing Ba/F3 cells stably expressing each mutant along with a WT FLT3-ITD control were plated in RPMI medium 1640+10% FCS supplemented with kinase inhibitor at the indicated concentration. After a 90-minute incubation, the cells were washed in phosphate buffered saline (PBS) and lysed in Cell Extraction Buffer (Invitrogen) supplemented with protease and phosphatase inhibitors. The lysate was clarified by centrifugation and quantitated by BCA assay (Thermo Scientific). Protein was subjected to sodium dodecylsulfate polyacrylamide electrophoresis and transferred to nitrocellulose membranes. Immunoblotting was performed using anti-phospho-FLT3 (Cell Signaling) and anti-FLT3 S18 antibody (Santa Cruz Biotechnology)."}},
  "data": [
    {"smiles": "CNC(=O)c1cc(Oc2ccc(NC(=O)Nc3ccc(Cl)c(C(F)(F)F)c3)cc2)ccn1", "note": "[sorafenib]", "values": [
      {"measurement": "resistance conferred by D835F mutation in vitro", "setting": "[1]; FLT3-ITD/D835F vs FLT3-ITD", "value": "cross-resistance"},
      {"measurement": "cross-resistance of AC220-resistant mutations in cell-based growth assay", "setting": "[1]; five AC220-resistant FLT3-ITD substitutions", "value": "substantial cross-resistance"},
      {"measurement": "sensitivity of FLT3-ITD/D835V in vitro, previously reported", "setting": "[2]", "value": "retain sensitivity"},
      {"measurement": "cross-resistance of AC220-resistant mutations in biochemical assay (phospho-FLT3)", "setting": "FLT3-ITD mutant isoforms", "value": "substantial cross-resistance"}
    ]}
  ]
}
